Patent US20230365553A1, “COMPOUNDS AND COMPOSITIONS FOR TREATING CONDITIONS ASSOCIATED WITH STING ACTIVITY” (IFM Due, Inc., priority 2020, published 2023)

Biological target: T1, STING (Homo sapiens, UniProt Q86WV6, G230A/H232R/R293Q/R71H)
T1 construct: host or cells: THP1-Dual KO-IFNAR2 cells
Assay: STING reporter assay: luciferase reporter activity in THP1-Dual KO-IFNAR2 cells stimulated with 2′3′cGAMP
Type: cell-based
Conditions: 15 μM 2′3′cGAMP, 24h, read-out: hSTING EC50
Procedure, shortened: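 THP1-Dual KO-IFNAR2 cells (2×10E6 cells/mL) were exposed to compounds at 0.0017-100 μM, then stimulated with 2′3′cGAMP (15 μM final) transfected via Lipofectamine 2000. After 24h at 37° C., secreted luciferase in supernatant was read by QUANTI-Luc luminescence; EC50 derived from concentration-response.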

T1 sequence (Q86WV6 whole entry R71H/G230A/H232R/R293Q): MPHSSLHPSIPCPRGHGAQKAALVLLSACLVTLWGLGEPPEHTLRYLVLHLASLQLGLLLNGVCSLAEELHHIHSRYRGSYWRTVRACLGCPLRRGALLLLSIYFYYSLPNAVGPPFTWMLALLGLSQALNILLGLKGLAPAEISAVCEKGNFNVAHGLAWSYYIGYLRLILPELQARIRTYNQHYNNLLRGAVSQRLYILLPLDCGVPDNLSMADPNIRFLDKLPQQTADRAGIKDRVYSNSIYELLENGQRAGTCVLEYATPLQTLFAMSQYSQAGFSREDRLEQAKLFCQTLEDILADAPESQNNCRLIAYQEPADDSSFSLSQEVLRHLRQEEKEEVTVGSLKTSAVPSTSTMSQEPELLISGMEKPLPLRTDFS

Row | SMILES | EC50 [nM]
1 | O=C(Nc1c[nH]c2ccc(-c3cnn(-c4ccc(C(F)(F)F)cc4)c3)cc12)c1ccn[nH]1 [Compound 265, N-(5-(1-(4-(trifluoromethyl)phenyl)-1H-pyrazol-4-yl)-1H-indol-3-yl)-1H-pyrazole-5-carboxamide] | 200 to 1000
2 | O=C(Nc1c[nH]c2ccc(-c3cnn(-c4ccc(C(F)(F)F)cc4)c3)cc12)c1cn[nH]c1 [Compound 266, N-(5-(1-(4-(trifluoromethyl)phenyl)-1H-pyrazol-4-yl)-1H-indol-3-yl)-1H-pyrazole-4-carboxamide] | 200 to 1000
3 | Cc1cc(C(=O)Nc2c[nH]c3ccc(-c4cnn(-c5ccc(C(F)(F)F)cc5)c4)cc23)on1 [Compound 271, 3-methyl-N-(5-(1-(4-(trifluoromethyl)phenyl)-1H-pyrazol-4-yl)-1H-indol-3-yl)isoxazole-5-carboxamide] | 200 to 1000
4 | Cc1cc(C(=O)Nc2c[nH]c3ccc(-c4cnn(-c5ccc(C(F)(F)F)cc5)c4)cc23)no1 [Compound 274, 5-methyl-N-(5-(1-(4-(trifluoromethyl)phenyl)-1H-pyrazol-4-yl)-1H-indol-3-yl)isoxazole-3-carboxamide] | 200 to 1000
5 | O=C(Nc1c[nH]c2ccc(-c3cnn(-c4ccc(C(F)(F)F)cc4)c3)cc12)c1cscn1 [Compound 275, N-(5-(1-(4-(trifluoromethyl)phenyl)-1H-pyrazol-4-yl)-1H-indol-3-yl)thiazole-4-carboxamide] | 1000 to 5000
6 | Cn1ccc(C(=O)Nc2c[nH]c3ccc(-c4cnn(-c5ccc(C(F)(F)F)cc5)c4)cc23)n1 [Compound 276, 1-methyl-N-(5-(1-(4-(trifluoromethyl)phenyl)-1H-pyrazol-4-yl)-1H-indol-3-yl)-1H-pyrazole-3-carboxamide] | 200 to 1000
7 | O=C(Nc1c[nH]c2ccc(-c3cnn(-c4ccc(C(F)(F)F)cc4)c3)cc12)c1cnoc1 [Compound 277, N-(5-(1-(4-(trifluoromethyl)phenyl)-1H-pyrazol-4-yl)-1H-indol-3-yl)isoxazole-4-carboxamide] | 5000 to 100000
8 | Cn1cc(C(=O)Nc2c[nH]c3ccc(-c4cnn(-c5ccc(C(F)(F)F)cc5)c4)cc23)cn1 [Compound 278, 1-methyl-N-(5-(1-(4-(trifluoromethyl)phenyl)-1H-pyrazol-4-yl)-1H-indol-3-yl)-1H-pyrazole-4-carboxamide] | 200 to 1000
9 | Cn1cnc(C(=O)Nc2c[nH]c3ccc(-c4cnn(-c5ccc(C(F)(F)F)cc5)c4)cc23)c1 [Compound 281, 1-methyl-N-(5-(1-(4-(trifluoromethyl)phenyl)-1H-pyrazol-4-yl)-1H-indol-3-yl)-1H-imidazole-4-carboxamide] | 1000 to 5000
10 | O=C(Nc1c[nH]c2ccc(-c3cnn(-c4ccc(C(F)(F)F)cc4)c3)cc12)c1ccc(=O)[nH]n1 [Compound 282, 6-oxo-N-(5-(1-(4-(trifluoromethyl)phenyl)-1H-pyrazol-4-yl)-1H-indol-3-yl)-1,6-dihydropyridazine-3-carboxamide] | 1000 to 5000
11 | CC(C)n1cc(C(=O)Nc2c[nH]c3ccc(-c4cnn(-c5ccc(C(F)(F)F)cc5)c4)cc23)nn1 [Compound 283, 1-isopropyl-N-(5-(1-(4-(trifluoromethyl)phenyl)-1H-pyrazol-4-yl)-1H-indol-3-yl)-1H-1,2,3-triazole-4-carboxamide] | 200 to 1000
12 | O=C(Nc1c[nH]c2ccc(-c3cnn(-c4ccc(C(F)(F)F)cc4)c3)cc12)[C@@H]1CC(F)(F)CN1 [compound 184, (S)-4,4-difluoro-N-(5-(1-(4-(trifluoromethyl)phenyl)-1H-pyrazol-4-yl)-1H-indol-3-yl)pyrrolidine-2-carboxamide] | 5000 to 100000

Further lines, results first:

Row | EC50 [nM] | SMILES
13 | 200 to 1000 | O=C(Nc1c[nH]c2ccc(-c3cnn(-c4ccc(C(F)(F)F)cc4)c3)cc12)c1cocn1 [Compound 267, N-(5-(1-(4-(trifluoromethyl)phenyl)-1H-pyrazol-4-yl)-1H-indol-3-yl)oxazole-4-carboxamide]
14 | 200 to 1000 | O=C(Nc1c[nH]c2ccc(-c3cnn(-c4ccc(C(F)(F)F)cc4)c3)cc12)c1cncs1 [Compound 268, N-(5-(1-(4-(trifluoromethyl)phenyl)-1H-pyrazol-4-yl)-1H-indol-3-yl)thiazole-5-carboxamide]
15 | 1000 to 5000 | Cn1ccnc1C(=O)Nc1c[nH]c2ccc(-c3cnn(-c4ccc(C(F)(F)F)cc4)c3)cc12 [Compound 269, 1-methyl-N-(5-(1-(4-(trifluoromethyl)phenyl)-1H-pyrazol-4-yl)-1H-indol-3-yl)-1H-imidazole-2-carboxamide]
16 | 200 to 1000 | Cc1nc(C(=O)Nc2c[nH]c3ccc(-c4cnn(-c5ccc(C(F)(F)F)cc5)c4)cc23)co1 [Compound 270, 2-methyl-N-(5-(1-(4-(trifluoromethyl)phenyl)-1H-pyrazol-4-yl)-1H-indol-3-yl)oxazole-4-carboxamide]
17 | 1000 to 5000 | O=C(Nc1c[nH]c2ccc(-c3cnn(-c4ccc(C(F)(F)F)cc4)c3)cc12)c1ncco1 [Compound 272, N-(5-(1-(4-(trifluoromethyl)phenyl)-1H-pyrazol-4-yl)-1H-indol-3-yl)oxazole-2-carboxamide]
18 | 1000 to 5000 | O=C(Nc1c[nH]c2ccc(-c3cnn(-c4ccc(C(F)(F)F)cc4)c3)cc12)c1nccs1 [Compound 273, N-(5-(1-(4-(trifluoromethyl)phenyl)-1H-pyrazol-4-yl)-1H-indol-3-yl)thiazole-2-carboxamide]
19 | 200 to 1000 | Cn1cc(C(=O)Nc2c[nH]c3ccc(-c4cnn(-c5ccc(C(F)(F)F)cc5)c4)cc23)nn1 [Compound 279, 1-methyl-N-(5-(1-(4-(trifluoromethyl)phenyl)-1H-pyrazol-4-yl)-1H-indol-3-yl)-1H-1,2,3-triazole-4-carboxamide]
20 | 200 to 1000 | O=C(Nc1c[nH]c2ccc(-c3cnn(-c4ccc(C(F)(F)F)cc4)c3)cc12)c1ccon1 [Compound 280, N-(5-(1-(4-(trifluoromethyl)phenyl)-1H-pyrazol-4-yl)-1H-indol-3-yl)isoxazole-3-carboxamide]
